# Measured values reported in patent US20110038885A1, “CHEMOKINE ANALOGS” (priority 2007, published 2011).
# Bridge positions count the residues as written; N and C are the ends. Square brackets hold non-standard residues; d marks the D form. Peptide text beside a SMILES is read from it. * marks the point of attachment. Ac6c = NC1(C(=O)O)CCCCC1; Octanoyl = CCCCCCCC(=O)*; dDap = NC[C@@H](N)C(=O)O; Aoc = NCCCCCCCC(=O)O; Ahx = NCCCCCC(=O)O; GABA = NCCCC(=O)O
# How the values were obtained:
# MCP-1 = assay: In vitro chemotaxis (trans-well migration) v MCP-1; format: cell-based, human
# Method in brief: (§1)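 Trans-well migration toward IL-8 or MCP-1 placed below, with agent added to THP-1 cells (10^4-10^6) in the top well and incubation at 37° C (e.g. 4 hours). MTT absorbance at 595 nm, interpolated on a cell standard curve, gives migrated cell numbers; TGFβ-type negative control and cytotoxicity check included.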
# IL-8 = assay: In vitro chemotaxis, inhibition v IL-8; format: cell-based, human; design: concentration or dose not given beside the values
# Method in brief: as §1
SMILES,EC50 (MCP-1) [nM],v IL-8 inhibition (%) (IL-8)
"CC[C@@H](C)[C@H]1NC(=O)[C@@H](CCC(N)=O)NC(=O)[C@H](N)CSSC[C@H](C(=O)NCCCC(=O)O)NC(=O)[C@@H](CC(C)C)NC(=O)[C@@H](CC(=O)O)NC(=O)[C@H]2CCCN2C(=O)[C@@H](CCCCN)NC(=O)[C@@H](CCC(N)=O)NC(=O)[C@@H](CCCCN)NC(=O)[C@@H](Cc2c[nH]c3ccccc23)NC1=O [Example 142, c(D-Cys-D-Gln-D-Ile-D-Trp-D-Lys-D-Gln-D-Lys-D-Pro-D-Asp-D-Leu-D-Cys)-Gaba-OH] (H-[dC][dQ][dI][dW][dK][dQ][dK][dP][dD][dL][dC][GABA]-OH; disulfide 1-11)",20,107.3
"CCCCCCCC(=O)NCCCC[C@H](NC(=O)[C@@H](CCC(=O)O)NC(=O)[C@H](NC(=O)[C@H]1CSSC[C@@H](N)C(=O)N[C@H](CCC(N)=O)C(=O)N[C@H]([C@H](C)CC)C(=O)N[C@H](Cc2c[nH]c3ccccc23)C(=O)N[C@H](CCCCN)C(=O)N[C@H](CCC(N)=O)C(=O)N[C@H](CCCCN)C(=O)N2CCC[C@@H]2C(=O)N[C@H](CC(=O)O)C(=O)N[C@H](CC(C)C)C(=O)N1)C(C)C)C(=O)O [Example 150, c(D-Cys-D-Gln-D-Ile-D-Trp-D-Lys-D-Gln-D-Lys-D-Pro-D-Asp-D-Leu-D-Cys)-D-Val-D-Glu-Lys(Nε-octanoyl)-OH] (H-[dC][dQ][dI][dW][dK][dQ][dK][dP][dD][dL][dC][dV][dE]K(Octanoyl)-OH; disulfide 1-11)",33,100.5
"CC[C@H](C)[C@@H]1NC(=O)[C@H](Cc2c[nH]c3ccccc23)NC(=O)[C@H](CCCCN)NC(=O)[C@H](CCC(N)=O)NC(=O)[C@@H](NC(=O)[C@H](CCCCN)NC(=O)[C@@H]2CCCN2C(=O)[C@H](CC(=O)O)NC(=O)[C@H](CC(C)C)NC(C)=O)CSSC[C@@H](C(N)=O)NC(=O)[C@H](CCC(N)=O)NC1=O [Example 22, Ac-Leu-Asp-Pro-Lys-c(Cys-Gln-Lys-Trp-Ile-Gln-Cys)-NH2] (Ac-LDPKCQKWIQC-NH2; disulfide 5-11)",900,16.8
"CC[C@H](C)[C@@H]1NC(=O)[C@H](Cc2c[nH]c3ccccc23)NC(=O)[C@H](CCCCN)NC(=O)[C@H](CCC(N)=O)NC(=O)[C@@H](N)CSSC[C@@H](C(N)=O)NC(=O)[C@H](CCC(N)=O)NC1=O [Example 50, c(Cys-Gln-Lys-Trp-Ile-Gln-Cys)-NH2] (H-CQKWIQC-NH2; disulfide 1-7)",25,104.8
"CC[C@H](C)[C@@H]1NC(=O)[C@H](Cc2c[nH]c3ccccc23)NC(=O)[C@H](CCCCN)NC(=O)[C@H](CCC(N)=O)NC(=O)[C@@H](CCCCN)NC(=O)[C@@H]2CCCN2C(=O)[C@H](CC(=O)O)NC(=O)[C@H](CC(C)C)NC(=O)[C@@H](NC(C)=O)CSSC[C@@H](C(N)=O)NC(=O)[C@H](CCC(N)=O)NC1=O [Example 29, Ac-c(Cys-Leu-Asp-Pro-D-Lys-Gln-Lys-Trp-Ile-Gln-Cys)-NH2] (Ac-CLDP[dK]QKWIQC-NH2; disulfide 1-11)",30,92.0
"CC[C@H](C)[C@@H]1NC(=O)[C@H](Cc2c[nH]c3ccccc23)NC(=O)[C@H](CCCCN)NC(=O)[C@H](CCC(N)=O)NC(=O)[C@H](CCCCN)NC(=O)[C@@H]2CCCN2C(=O)[C@@H](NC(=O)[C@H](CC(=O)O)NC(=O)[C@@H](N)CC(C)C)CSSC[C@@H](C(N)=O)NC(=O)[C@H](CCC(N)=O)NC1=O [Example 11, Leu-Asp-c(Cys-Pro-Lys-Gln-Lys-Trp-Ile-Gln-Cys)-NH2] (H-LDCPKQKWIQC-NH2; disulfide 3-11)",330,38.1
"CC[C@@H](C)[C@H]1NC(=O)[C@H](Cc2c[nH]c3ccccc23)NC(=O)[C@H](CCCCN)NC(=O)[C@H](CCC(N)=O)NC(=O)[C@H](CCCCN)NC(=O)[C@@H]2CCCN2C(=O)[C@H](CC(=O)O)NC(=O)[C@H](CC(C)C)NC(=O)[C@@H](NC(C)=O)CSSC[C@@H](C(N)=O)NC(=O)[C@H](CCC(N)=O)NC1=O [Example 25, Ac-c(Cys-Leu-Asp-Pro-Lys-Gln-Lys-Trp-D-Ile-Gln-Cys)-NH2] (Ac-CLDPKQKW[dI]QC-NH2; disulfide 1-11)",30,96.9
"CC(=O)N[C@H]1CSSC[C@@H](C(N)=O)NC(=O)[C@H](CCC(N)=O)NC(=O)C2(CCCCC2)NC(=O)[C@H](Cc2c[nH]c3ccccc23)NC(=O)[C@H](CCCCN)NC(=O)[C@H](CCC(N)=O)NC(=O)[C@H](CCCCN)NC(=O)[C@@H]2CCCN2C(=O)[C@H](CC(=O)O)NC(=O)[C@H](CC(C)C)NC1=O [Example 155, Ac-c(Cys-Leu-Asp-Pro-Lys-Gln-Lys-Trp-A6c-Gln-Cys)-NH2] (Ac-CLDPKQKW[Ac6c]QC-NH2; disulfide 1-11)",> 1000,−1.5
"CC[C@H](C)[C@@H]1NC(=O)[C@H](Cc2c[nH]c3ccccc23)NC(=O)[C@H](CCCCN)NC(=O)[C@H](CCC(N)=O)NC(=O)[C@H](CCCCN)NC(=O)[C@@H]2CCCN2C(=O)[C@H](CC(=O)O)NC(=O)[C@H](CC(C)C)NC(=O)[C@@H](NC(C)=O)CSSC[C@@H](C(=O)N[C@H](CN)C(N)=O)NC(=O)[C@H](CCC(N)=O)NC1=O [Example 16, Ac-c(Cys-Leu-Asp-Pro-Lys-Gln-Lys-Trp-Ile-Gln-Cys)-D-Dap-NH2] (Ac-CLDPKQKWIQC[dDap]-NH2; disulfide 1-11)",800,19.8
"CC[C@@H](C)[C@H]1NC(=O)[C@@H](CCC(N)=O)NC(=O)[C@H](N)CSSC[C@H](C(=O)NCCCCCCCC(=O)O)NC(=O)[C@@H](CC(C)C)NC(=O)[C@@H](CC(=O)O)NC(=O)[C@H]2CCCN2C(=O)[C@@H](CCCCN)NC(=O)[C@@H](CCC(N)=O)NC(=O)[C@@H](CCCCN)NC(=O)[C@@H](Cc2c[nH]c3ccccc23)NC1=O [Example 139, c(D-Cys-D-Gln-D-Ile-D-Trp-D-Lys-D-Gln-D-Lys-D-Pro-D-Asp-D-Leu-D-Cys)-Aoc-OH] (H-[dC][dQ][dI][dW][dK][dQ][dK][dP][dD][dL][dC][Aoc]-OH; disulfide 1-11)",100,47.0
"CC[C@H](C)[C@@H]1NC(=O)[C@H](Cc2c[nH]c3ccccc23)NC(=O)[C@H](CCCCN)NC(=O)[C@H](CCC(N)=O)NC(=O)[C@H](CCCCN)NC(=O)[C@@H](N)CSSC[C@@H](C(N)=O)NC(=O)[C@H](CCC(N)=O)NC1=O [Example 49, c(Cys-Lys-Gln-Lys-Trp-Ile-Gln-Cys)-NH2] (H-CKQKWIQC-NH2; disulfide 1-8)",100,72.6
"CC[C@H](C)[C@@H]1NC(=O)[C@H](Cc2c[nH]c3ccccc23)NC(=O)[C@H](CCCCN)NC(=O)[C@H](CCC(N)=O)NC(=O)[C@H](CCCCN)NC(=O)[C@@H]2CCCN2C(=O)[C@H](CC(=O)O)NC(=O)[C@@H](N)CSSC[C@@H](C(N)=O)NC(=O)[C@H](CCC(N)=O)NC1=O [Example 42, c(Cys-Asp-Pro-Lys-Gln-Lys-Trp-Ile-Gln-Cys)-NH2] (H-CDPKQKWIQC-NH2; disulfide 1-10)",25,94.4
"CC[C@H](C)[C@@H]1NC(=O)[C@H](Cc2c[nH]c3ccccc23)NC(=O)[C@H](CCCCN)NC(=O)[C@H](CCC(N)=O)NC(=O)[C@H](CCCCN)NC(=O)[C@@H]2CCCN2C(=O)[C@H](CC(=O)O)NC(=O)[C@H](CC(C)C)NC(=O)[C@@H](NC(=O)[C@H](CC(=O)O)NC(C)=O)CSSC[C@@H](C(=O)N[C@H](CN)C(N)=O)NC(=O)[C@H](CCC(N)=O)NC1=O [Example 17, Ac-Asp-c(Cys-Leu-Asp-Pro-Lys-Gln-Lys-Trp-Ile-Gln-Cys)-D-Dap-NH2] (Ac-DCLDPKQKWIQC[dDap]-NH2; disulfide 2-12)",> 1000,15.5
"CC[C@@H](C)[C@H]1NC(=O)[C@@H](CCC(N)=O)NC(=O)[C@H](N)CSSC[C@H](C(=O)N[C@@H](CC(=O)O)C(=O)NCCCCCCCC(=O)O)NC(=O)[C@@H](CC(C)C)NC(=O)[C@@H](CC(=O)O)NC(=O)[C@H]2CCCN2C(=O)[C@@H](CCCCN)NC(=O)[C@@H](CCC(N)=O)NC(=O)[C@@H](CCCCN)NC(=O)[C@@H](Cc2c[nH]c3ccccc23)NC1=O [Example 144, c(D-Cys-D-Gln-D-Ile-D-Trp-D-Lys-D-Gln-D-Lys-D-Pro-D-Asp-D-Leu-D-Cys)-Asp-Aoc-OH] (H-[dC][dQ][dI][dW][dK][dQ][dK][dP][dD][dL][dC]D[Aoc]-OH; disulfide 1-11)",3000,25.4
"CC[C@@H](C)[C@H]1NC(=O)[C@@H](CCC(N)=O)NC(=O)[C@H](N)CSSC[C@H](C(=O)NCCCCCC(=O)O)NC(=O)[C@@H](CC(C)C)NC(=O)[C@@H](CC(=O)O)NC(=O)[C@H]2CCCN2C(=O)[C@@H](CCCCN)NC(=O)[C@@H](CCC(N)=O)NC(=O)[C@@H](CCCCN)NC(=O)[C@@H](Cc2c[nH]c3ccccc23)NC1=O [Example 143, c(D-Cys-D-Gln-D-Ile-D-Trp-D-Lys-D-Gln-D-Lys-D-Pro-D-Asp-D-Leu-D-Cys)-Ahx-OH] (H-[dC][dQ][dI][dW][dK][dQ][dK][dP][dD][dL][dC][Ahx]-OH; disulfide 1-11)",30,103.5
"CC[C@H](C)[C@@H]1NC(=O)[C@H](Cc2c[nH]c3ccccc23)NC(=O)[C@H](CCCCN)NC(=O)[C@@H](NC(=O)[C@H](CCC(N)=O)NC(=O)[C@H](CCCCN)NC(=O)[C@@H]2CCCN2)CSSC[C@@H](C(N)=O)NC(=O)[C@H](CCC(N)=O)NC1=O [Example 45, Pro-Lys-Gln-c(Cys-Lys-Trp-Ile-Gln-Cys)-NH2] (H-PKQCKWIQC-NH2; disulfide 4-9)",150,74.2
"CC[C@H](C)[C@@H]1NC(=O)[C@H](Cc2c[nH]c3ccccc23)NC(=O)[C@H](CCCCN)NC(=O)[C@H](CCC(N)=O)NC(=O)[C@H](CCCCN)NC(=O)[C@@H](NC(=O)[C@@H]2CCCN2C(=O)[C@H](CC(=O)O)NC(=O)[C@@H](N)CC(C)C)CSSC[C@@H](C(N)=O)NC(=O)[C@H](CCC(N)=O)NC1=O [Example 38, Leu-Asp-Pro-c(Cys-Lys-Gln-Lys-Trp-Ile-Gln-Cys)-NH2] (H-LDPCKQKWIQC-NH2; disulfide 4-11)",> 1000,−12
